Reference: patent publication US5571785A, “Biologically active compounds” (Farmitalia Carlo Erba S.r.l, priority 1993, dated 1996)
Where a name gives a salt, the structure may show the parent alone.

How the values were obtained:
[1] = Single-dose i.v. toxicity in healthy mice (LD10, LD50, therapeutic index); assay type: in vivo, mouse; conditions: mouse, in vivo, iv; single dose i.v., healthy C57 B1/F mice, Probit Analysis after 3-week recovery
Method: (§1) Toxicity was evaluated in healthy C57B1F mice, treatment i.v., with single doses of 4'-epidoxorubicin.HCl (13.2-16.15-19-20.6-25.2 and 33.2 mg/kg) and compound A4 (50-63-79-100-120-140 mg/kg)
(§2) For the determination of LD10 and LD= in healthy C57 B1F mice the Probit Analysis' after 3-week recovery was used.
(§3) The therapeutic index was calculated using the following formula: [formula]
(§4) Dose effective 50 is the dose causing 50% of tumor growth reduction.

healthy C57B1F mice = test: as above; assay type: in vivo, mouse; conditions: for LD10: Probit Analysis after 3-week recovery
Method: as §1, §2, §3, §4

[2] = test system: M5076 murine reticulosarcoma; test: Antitumour activity (and toxic deaths) against M5076 murine reticulosarcoma transplanted s.c. in mice; assay type: in vivo, mouse (C75 B1/6 mice); conditions: for A.U.C. % inhib / T.C. % (median survival time treated/control × 100) / TOX (number of toxic deaths/total number of mice) / TDG (Tumor Growth Delay) (1 g) / LTS (Long Terms Survivors) / Tox (number of toxic deaths/total number of mice) / Tumor free (mice tumor free at the end of the experiments): days 5, 9, 15; for TDG (Tumor Growth Delay) (1 g): time to reach 1 g tumor weight
Method: Antitumour activity of compound A1 on M5076.
The antitumour activity of A1, described in Example 13, was tested as follows:
All drug solutions were prepared immediately before use. Treatment was administered i.v. in a volume of 10 ml/Kg body weight at days 5,9 and 15.
Anthracyclines were dissolved in sterile water and the concentration was checked spectrophotometrically.
Lyophylized polymers were dissolved in water to give a starting solution of 25 mg anthracycline equivalent/ml according to the reported concentration,further dilutions were performed in water.
M5076 murine reticulosarcoma was obtained by serial i.m. passage and transplanted (5×10^5 cells/mouse) s.c. in C75 B1/6 mice to evaluate the activity on primary tumor.
Tumor growth was assessed by. caliper measurement, and the tumor weight estimated according to Geran etal., see Cancer Chemother. Rep. 3, 1 (1972).
The antitumor activity was determined in time (days) to reach one gramm tumor weight and is reported as tumor growth delay (TGD).
The median increase in survival time (T/C%) was calculated using the following formula: [formula]
Toxicity was evaluated on the basis of body weight reduction and gross finding main of spleen and liver reduction.
Neurotoxicity is determined as number of mice with lack of motor function. […]
The antitumor activity was tested with the same treatment schedule for 4'-epidoxorubicin.HCl and compound A4.

[3] = single dose i.v., healthy C57 B1/F mice
[4] = Table 2, 4.0 mg/kg (anthracycline equivalent) i.v.
[5] = Table 2, 5.0 mg/kg (anthracycline equivalent) i.v.
[6] = Table 2, 6.0 mg/kg (anthracycline equivalent) i.v.
[7] = Table 1, 30.0 mg/kg (anthracycline equivalent) i.v.
[8] = Table 1, 40.0 mg/kg (anthracycline equivalent) i.v.
[9] = Table 1, 50.0 mg/kg (anthracycline equivalent) i.v.

Work on `COc1cccc2c1C(=O)c1c(O)c3c(c(O)c1C2=O)C[C@@](O)(C(=O)CO)C[C@@H]3O[C@H]1C[C@H](N)[C@@H](O)[C@H](C)O1` [4'-epidoxorubicin.HCl, reference compound] yielded an LD50 at 504 h [1] of 21.4 mg/kg, an LD10 (healthy C57B1F mice; [3]) of 16.4 mg/kg and an A.U.C. % inhib ([2]; Table 3, 5 mg/kg) of 51%. For the same compound, the “T.C. % (median survival time treated/control × 100)” value ([2]; Table 3, 5 mg/kg) was 105%, the “TOX (number of toxic deaths/total number of mice)” value ([2]; Table 3, 5 mg/kg) was 0/9 and the “TDG (Tumor Growth Delay) (1 g)” value ([2]; Table 3, 5 mg/kg) was 22 days. For the same compound, the A.U.C. % inhib ([2]; Table 3, 7.5 mg/kg) was 90%, the “T.C. % (median survival time treated/control × 100)” value ([2]; Table 3, 7.5 mg/kg) was 124% and the “TOX (number of toxic deaths/total number of mice)” value ([2]; Table 3, 7.5 mg/kg) was 0/9. For the same compound, the “TDG (Tumor Growth Delay) (1 g)” value ([2]; Table 3, 7.5 mg/kg) was 34 days, the A.U.C. % inhib ([2]; Table 3, 10 mg/kg) was 99% and the “T.C. % (median survival time treated/control × 100)” value ([2]; Table 3, 10 mg/kg) was 125%. The “TOX (number of toxic deaths/total number of mice)” value ([2]; Table 3, 10 mg/kg) was 0/9 and the “TDG (Tumor Growth Delay) (1 g)” value ([2]; Table 3, 10 mg/kg) was 40 days.

In the case of `CC(=O)[C@]1(O)Cc2c(O)c3c(c(O)c2[C@@H](O[C@H]2C[C@H](N)[C@H](O)[C@H](C)O2)C1)C(=O)c1ccccc1C3=O` [4-demethoxydaunorubicin, reference compound], the A.U.C. % inhib ([2]; Table 2, 1.0 mg/kg i.v.) is reported as 47%, the “LTS (Long Terms Survivors)” value ([2]; Table 2, 1.0 mg/kg i.v.) is reported as 0/9 and the “T.C. % (median survival time treated/control × 100)” value ([2]; Table 2, 1.0 mg/kg i.v.) is reported as 142%. For the same compound, the “Tox (number of toxic deaths/total number of mice)” value ([2]; Table 2, 1.0 mg/kg i.v.) was 0/9, the “Tumor free (mice tumor free at the end of the experiments)” value (“Tumor free” for short) ([2]; Table 2, 1.0 mg/kg i.v.) was 0/9 and the “TDG (Tumor Growth Delay) (1 g)” value ([2]; Table 2, 1.0 mg/kg i.v.) was 19 days. The A.U.C. % inhib ([2]; Table 2, 1.5 mg/kg i.v.) was 80%, the “LTS (Long Terms Survivors)” value ([2]; Table 2, 1.5 mg/kg i.v.) was 0/9 and the “T.C. % (median survival time treated/control × 100)” value ([2]; Table 2, 1.5 mg/kg i.v.) was 160%. For the same compound, the “Tox (number of toxic deaths/total number of mice)” value ([2]; Table 2, 1.5 mg/kg i.v.) was 0/9, the “Tumor free” value ([2]; Table 2, 1.5 mg/kg i.v.) was 0/9 and the “TDG (Tumor Growth Delay) (1 g)” value ([2]; Table 2, 1.5 mg/kg i.v.) was 28 days.

In the case of `COc1cccc2c1C(=O)c1c(O)c3c(c(O)c1C2=O)C[C@@](O)(C(=O)CO)C[C@@H]3O[C@H]1C[C@H](N)[C@H](O)[C@H](C)O1` [doxorubicin, reference compound], the A.U.C. % inhib ([2]; Table 1, 7.5 mg/kg i.v.) is reported as 90%, the “LTS (Long Terms Survivors)” value ([2]; Table 1, 7.5 mg/kg i.v.) is reported as 0/26 and the “Tox (number of toxic deaths/total number of mice)” value ([2]; Table 1, 7.5 mg/kg i.v.) is reported as 0/26. The “Tumor free” value ([2]; Table 1, 7.5 mg/kg i.v.) was 0/26, the “TDG (Tumor Growth Delay) (1 g)” value ([2]; Table 1, 7.5 mg/kg i.v.) was 35 days and the A.U.C. % inhib ([2]; Table 1, 10.0 mg/kg i.v.) was 100%. The “LTS (Long Terms Survivors)” value ([2]; Table 1, 10.0 mg/kg i.v.) was 0/26, the “Tox (number of toxic deaths/total number of mice)” value ([2]; Table 1, 10.0 mg/kg i.v.) was 3/26 and the “Tumor free” value ([2]; Table 1, 10.0 mg/kg i.v.) was 0/26. For the same compound, the “TDG (Tumor Growth Delay) (1 g)” value ([2]; Table 1, 10.0 mg/kg i.v.) was 39 days.

With “Copolymer of 3-methacryloylamino-2-hydroxypropane, 4'-epi-3'-N-(methacryloylglycyl-L-phenylalanyl-L-leuculglycyl)doxorubicin and 1-N-(methacryloylgylcyl)-2-hydrocypropane [A4]” the therapeutic index (healthy C57B1F mice; calculated by formula using dose effective 50 (dose causing 50% of tumor growth reduction)) was 40, the toxicity (healthy C57B1F mice; compared with 4'-epidoxorubicin.HCl) was “low toxicity” and the LD10 (healthy C57B1F mice; [3]) was 128.0 mg/kg. For the same compound, the “LD50 (extrapolated value)” value (healthy C57B1F mice; single dose i.v., healthy C57 B1/F mice, Probit Analysis, extrapolated value, 30240 min) was 389 mg/kg, the A.U.C. % inhib ([2]; Table 3, 10 mg/kg) was 100% and the “T.C. % (median survival time treated/control × 100)” value ([2]; Table 3, 10 mg/kg) was 190%. The “TOX (number of toxic deaths/total number of mice)” value ([2]; Table 3, 10 mg/kg) was 0/9, the “TDG (Tumor Growth Delay) (1 g)” value ([2]; Table 3, 10 mg/kg) was 62 days and the A.U.C. % inhib ([2]; Table 3, 20 mg/kg) was 100%. The “T.C. % (median survival time treated/control × 100)” value ([2]; Table 3, 20 mg/kg) was 219%, the “TOX (number of toxic deaths/total number of mice)” value ([2]; Table 3, 20 mg/kg) was 0/9 and the “TDG (Tumor Growth Delay) (1 g)” value ([2]; Table 3, 20 mg/kg) was 62 days. For the same compound, the A.U.C. % inhib ([2]; Table 3, 30 mg/kg) was 100%, the “T.C. % (median survival time treated/control × 100)” value ([2]; Table 3, 30 mg/kg) was 229% and the “TOX (number of toxic deaths/total number of mice)” value ([2]; Table 3, 30 mg/kg) was 0/9. For the same compound, the “TDG (Tumor Growth Delay) (1 g)” value ([2]; Table 3, 30 mg/kg) was 71 days and the “Activity against early M5076 murine reticulosarcoma compared with free drug” value ([2]; versus 4'-epidoxorubicin.HCl, same treatment schedule) was “more active than free drug at all tested doses”.

With “Copolymer of 3-methacryloylamino-2-hyvdroxypropane, 4-demethoxy, 3'-N-(methacrylgylcyl-L-phenylalanyl-L-leucyl glycyl)daunorubicin and N-methacryloylglycine [A3]” the A.U.C. % inhib [2, 4] was 100%, the “LTS (Long Terms Survivors)” value [2, 4] was 0/10 and the “T.C. % (median survival time treated/control × 100)” value [2, 4] was 198%. For the same compound, the “Tox (number of toxic deaths/total number of mice)” value [2, 4] was 0/10, the “Tumor free” value [2, 4] was 0/10 and the “TDG (Tumor Growth Delay) (1 g)” value [2, 4] was 49 days. For the same compound, the A.U.C. % inhib [2, 5] was 100%, the “LTS (Long Terms Survivors)” value [2, 5] was 0/10 and the “T.C. % (median survival time treated/control × 100)” value [2, 5] was 205%. The “Tox (number of toxic deaths/total number of mice)” value [2, 5] was 0/10, the “Tumor free” value [2, 5] was 0/10 and the “TDG (Tumor Growth Delay) (1 g)” value [2, 5] was 50 days. For the same compound, the A.U.C. % inhib [2, 6] was 100%, the “LTS (Long Terms Survivors)” value [2, 6] was 0/9 and the “T.C. % (median survival time treated/control × 100)” value [2, 6] was 212%. The “Tox (number of toxic deaths/total number of mice)” value [2, 6] was 0/9, the “Tumor free” value [2, 6] was 0/9 and the “TDG (Tumor Growth Delay) (1 g)” value [2, 6] was 55 days.

In the case of “Copolymer of 3-methacryloylamino-2hydroxypropane, 3'-N-(methacryloylgly-L-phenlalanyl-L-leucylqlycyl)doxorubicin and N-methacryloylqlycine [A1]”, the A.U.C. % inhib [2, 7] is reported as 100%, the “LTS (Long Terms Survivors)” value [2, 7] is reported as 4/10 and the “T.C. % (median survival time treated/control × 100)” value [2, 7] is reported as 378%. For the same compound, the “Tox (number of toxic deaths/total number of mice)” value [2, 7] was 0/10, the “Tumor free” value [2, 7] was 3/10 and the “TDG (Tumor Growth Delay) (1 g)” value [2, 7] was 80 days. For the same compound, the A.U.C. % inhib [2, 8] was 100%, the “LTS (Long Terms Survivors)” value [2, 8] was 6/10 and the “T.C. % (median survival time treated/control × 100)” value [2, 8] was > 369%. For the same compound, the “Tox (number of toxic deaths/total number of mice)” value [2, 8] was 0/10, the “Tumor free” value [2, 8] was 5/10 and the A.U.C. % inhib [2, 9] was 100%. The “LTS (Long Terms Survivors)” value [2, 9] was 7/10, the “T.C. % (median survival time treated/control × 100)” value [2, 9] was > 369% and the “Tumor free” value [2, 9] was 7/10. For the same compound, the “Tox (number of toxic deaths/total number of mice)” value ([2]; Table 1, 50.0 mg/kg (anthracycline equivalent) i.v., footnote *Neurotoxicity) was 2/10.
